Measurements published in patent US8758816B2, “Compositions comprising azelastine and methods of use thereof” (priority 2004, dated 2014).
Structures can show the parent of a compound that is named as a salt.

System: patients with seasonal allergic rhinitis (SAR)
Experiment: MP 428 study: individual symptom severity scores (runny nose, itchy nose, sneezing, congestion; 0-3 scale)
Type: in vivo, human
Conditions: Intent-to-Treat Population
Experimental: A two-week, randomized, double-blind study, which evaluated the effects of the co-administration of ASTELIN® (azelastine hydrochloride (HCl)) and FLONASE® (fluticasone propionate) compared to either product alone in patients with seasonal allergic rhinitis (SAR) was conducted during the 2006 Texas mountain cedar season. After a 5-day placebo lead-in period, 151 patients with moderate-to-severe allergic rhinitis symptoms were randomized to either: (1) (49 total patients) ASTELIN® (azelastine hydrochloride (HCl)) plus placebo saline nasal spray 2 sprays per nostril, 15 minutes apart, twice daily (AM & PM); (2) (50 total patients) FLONASE® (fluticasone propionate) plus placebo saline nasal spray, 2 sprays per nostril, 15 minutes apart, once daily (AM) and two sessions of placebo saline nasal spray, 2 sprays per nostril, 15 minutes apart (PM); or (3) (52 total patients) the co-administration of ASTELIN® (azelastine hydrochloride (HCl)) 2 sprays per nostril plus FLONASE® (fluticasone propionate) 2 sprays per nostril (AM), 15 minutes apart, and ASTELIN® (azelastine hydrochloride (HCl)) 2 sprays per nostril plus placebo saline nasal spray, 15 minutes apart, (PM) for a 2-week double-blind treatment period.
The primary efficacy variable was the change from baseline in the Total Nasal Symptom Score (TNSS), which comprised sneezing, itchy nose, runny nose, and nasal congestion (individual symptoms scores were assigned a value between 0 and 3, where 0=no symptoms and 3=severe symptoms). This study was not statistically designed to assess the differences between ASTELIN® and FLONASE®.
The results of the clinical trial are summarized and presented in Appendix A hereinbelow and in FIGS. 1-6. […] FIGS. 2-5 show the mean improvement in severity score (0-3 scale) from baseline for the symptoms of runny nose, itchy nose, sneezing and congestion, respectively.

CN1CCCC(n2nc(Cc3ccc(Cl)cc3)c3ccccc3c2=O)CC1 (racemic) [Azelastine, (±)-1-(2H)-phthalazinone, 4-[(4-chlorophenyl)methyl]-2-(hexahydro-1-methyl-1H-azepin-4-yl)-, mono-hydrochloride]
Percent Change from Baseline in AM and PM Combined Nasal Symptom Score: Congestion, LS Mean (Day 5): −18.24%
Percent Change from Baseline in AM and PM Combined Nasal Symptom Score: Congestion, Mean (Day 5): −18.92%
Percent Change from Baseline in AM and PM Combined Nasal Symptom Score: Congestion, Median (Day 5): −16.67%
Percent Change from Baseline in AM and PM Combined Nasal Symptom Score: Itchy Nose, LS Mean (Day 5): −24.75%
Percent Change from Baseline in AM and PM Combined Nasal Symptom Score: Itchy Nose, Mean (Day 5): −24.24%
Percent Change from Baseline in AM and PM Combined Nasal Symptom Score: Itchy Nose, Median (Day 5): −15.49%
Percent Change from Baseline in AM and PM Combined Nasal Symptom Score: Runny Nose, LS Mean (Day 5): −18.46%
Percent Change from Baseline in AM and PM Combined Nasal Symptom Score: Runny Nose, Mean (Day 5): −18.42%
Percent Change from Baseline in AM and PM Combined Nasal Symptom Score: Runny Nose, Median (Day 5): −11.76%
Percent Change from Baseline in AM and PM Combined Nasal Symptom Score: Sneezing, LS Mean (Day 5): −33.21%
Percent Change from Baseline in AM and PM Combined Nasal Symptom Score: Sneezing, Mean (Day 5): −32.23%
Percent Change from Baseline in AM and PM Combined Nasal Symptom Score: Sneezing, Median (Day 5): −25.23%
Change from Baseline in AM and PM Combined Nasal Symptom Score: Congestion, LS Mean (Day 6): −1.04
Change from Baseline in AM and PM Combined Nasal Symptom Score: Congestion, Mean (Day 6): −1.09
Change from Baseline in AM and PM Combined Nasal Symptom Score: Congestion, Median (Day 6): −0.92
Change from Baseline in AM and PM Combined Nasal Symptom Score: Itchy Nose, LS Mean (Day 6): −1.14
Change from Baseline in AM and PM Combined Nasal Symptom Score: Itchy Nose, Mean (Day 6): −1.14
Change from Baseline in AM and PM Combined Nasal Symptom Score: Itchy Nose, Median (Day 6): −0.73
Change from Baseline in AM and PM Combined Nasal Symptom Score: Runny Nose, LS Mean (Day 6): −0.94
Change from Baseline in AM and PM Combined Nasal Symptom Score: Runny Nose, Mean (Day 6): −0.95
Change from Baseline in AM and PM Combined Nasal Symptom Score: Runny Nose, Median (Day 6): −1.00
Change from Baseline in AM and PM Combined Nasal Symptom Score: Sneezing, LS Mean (Day 6): −1.27
Change from Baseline in AM and PM Combined Nasal Symptom Score: Sneezing, Mean (Day 6): −1.26
Change from Baseline in AM and PM Combined Nasal Symptom Score: Sneezing, Median (Day 6): −1.30
Percent Change from Baseline in AM and PM Combined Nasal Symptom Score: Congestion, LS Mean (Day 6): −18.26%
Percent Change from Baseline in AM and PM Combined Nasal Symptom Score: Congestion, Mean (Day 6): −18.97%
Percent Change from Baseline in AM and PM Combined Nasal Symptom Score: Congestion, Median (Day 6): −18.37%
Percent Change from Baseline in AM and PM Combined Nasal Symptom Score: Itchy Nose, LS Mean (Day 6): −24.98%
Percent Change from Baseline in AM and PM Combined Nasal Symptom Score: Itchy Nose, Mean (Day 6): −25.00%
Percent Change from Baseline in AM and PM Combined Nasal Symptom Score: Itchy Nose, Median (Day 6): −15.49%
Percent Change from Baseline in AM and PM Combined Nasal Symptom Score: Runny Nose, LS Mean (Day 6): −18.89%
Percent Change from Baseline in AM and PM Combined Nasal Symptom Score: Runny Nose, Mean (Day 6): −18.89%
Percent Change from Baseline in AM and PM Combined Nasal Symptom Score: Runny Nose, Median (Day 6): −21.74%
Percent Change from Baseline in AM and PM Combined Nasal Symptom Score: Sneezing, LS Mean (Day 6): −32.36%
Percent Change from Baseline in AM and PM Combined Nasal Symptom Score: Sneezing, Mean (Day 6): −31.52%
Percent Change from Baseline in AM and PM Combined Nasal Symptom Score: Sneezing, Median (Day 6): −28.00%
Change from Baseline in AM and PM Combined Nasal Symptom Score: Congestion, LS Mean (Day 7): −1.17
Change from Baseline in AM and PM Combined Nasal Symptom Score: Congestion, Mean (Day 7): −1.23
Change from Baseline in AM and PM Combined Nasal Symptom Score: Congestion, Median (Day 7): −1.00
Change from Baseline in AM and PM Combined Nasal Symptom Score: Itchy Nose, LS Mean (Day 7): −1.18
Change from Baseline in AM and PM Combined Nasal Symptom Score: Itchy Nose, Mean (Day 7): −1.17
Change from Baseline in AM and PM Combined Nasal Symptom Score: Itchy Nose, Median (Day 7): −0.90
Change from Baseline in AM and PM Combined Nasal Symptom Score: Runny Nose, LS Mean (Day 7): −0.93
Change from Baseline in AM and PM Combined Nasal Symptom Score: Runny Nose, Mean (Day 7): −0.95
Change from Baseline in AM and PM Combined Nasal Symptom Score: Runny Nose, Median (Day 7): −1.07
Change from Baseline in AM and PM Combined Nasal Symptom Score: Sneezing, LS Mean (Day 7): −1.76
Change from Baseline in AM and PM Combined Nasal Symptom Score: Sneezing, Mean (Day 7): −1.75
Change from Baseline in AM and PM Combined Nasal Symptom Score: Sneezing, Median (Day 7): −1.55
Percent Change from Baseline in AM and PM Combined Nasal Symptom Score: Congestion, LS Mean (Day 7): −21.14%
Percent Change from Baseline in AM and PM Combined Nasal Symptom Score: Congestion, Mean (Day 7): −22.02%
Percent Change from Baseline in AM and PM Combined Nasal Symptom Score: Congestion, Median (Day 7): −18.37%
Percent Change from Baseline in AM and PM Combined Nasal Symptom Score: Itchy Nose, LS Mean (Day 7): −26.35%
Percent Change from Baseline in AM and PM Combined Nasal Symptom Score: Itchy Nose, Mean (Day 7): −25.83%
Percent Change from Baseline in AM and PM Combined Nasal Symptom Score: Itchy Nose, Median (Day 7): −21.57%
Percent Change from Baseline in AM and PM Combined Nasal Symptom Score: Runny Nose, LS Mean (Day 7): −18.66%
Percent Change from Baseline in AM and PM Combined Nasal Symptom Score: Runny Nose, Mean (Day 7): −18.92%
Percent Change from Baseline in AM and PM Combined Nasal Symptom Score: Runny Nose, Median (Day 7): −25.00%
Percent Change from Baseline in AM and PM Combined Nasal Symptom Score: Sneezing, LS Mean (Day 7): −40.66%
Percent Change from Baseline in AM and PM Combined Nasal Symptom Score: Sneezing, Mean (Day 7): −39.73%
Percent Change from Baseline in AM and PM Combined Nasal Symptom Score: Sneezing, Median (Day 7): −38.78%
Change from Baseline in AM and PM Combined Nasal Symptom Score: Congestion, LS Mean (Day 8): −1.24
Change from Baseline in AM and PM Combined Nasal Symptom Score: Congestion, Mean (Day 8): −1.27
Change from Baseline in AM and PM Combined Nasal Symptom Score: Congestion, Median (Day 8): −1.00
Change from Baseline in AM and PM Combined Nasal Symptom Score: Itchy Nose, LS Mean (Day 8): −1.15
Change from Baseline in AM and PM Combined Nasal Symptom Score: Itchy Nose, Mean (Day 8): −1.12
Change from Baseline in AM and PM Combined Nasal Symptom Score: Itchy Nose, Median (Day 8): −0.83
Change from Baseline in AM and PM Combined Nasal Symptom Score: Runny Nose, LS Mean (Day 8): −1.23
Change from Baseline in AM and PM Combined Nasal Symptom Score: Runny Nose, Mean (Day 8): −1.25
Change from Baseline in AM and PM Combined Nasal Symptom Score: Runny Nose, Median (Day 8): −1.00
Change from Baseline in AM and PM Combined Nasal Symptom Score: Sneezing, LS Mean (Day 8): −1.74
Change from Baseline in AM and PM Combined Nasal Symptom Score: Sneezing, Mean (Day 8): −1.73
Change from Baseline in AM and PM Combined Nasal Symptom Score: Sneezing, Median (Day 8): −1.55
Percent Change from Baseline in AM and PM Combined Nasal Symptom Score: Congestion, LS Mean (Day 8): −22.22%
Percent Change from Baseline in AM and PM Combined Nasal Symptom Score: Congestion, Mean (Day 8): −22.68%
Percent Change from Baseline in AM and PM Combined Nasal Symptom Score: Congestion, Median (Day 8): −18.64%
Percent Change from Baseline in AM and PM Combined Nasal Symptom Score: Itchy Nose, LS Mean (Day 8): −25.37%
Percent Change from Baseline in AM and PM Combined Nasal Symptom Score: Itchy Nose, Mean (Day 8): −24.80%
Percent Change from Baseline in AM and PM Combined Nasal Symptom Score: Itchy Nose, Median (Day 8): −18.92%
Percent Change from Baseline in AM and PM Combined Nasal Symptom Score: Runny Nose, LS Mean (Day 8): −24.85%
Percent Change from Baseline in AM and PM Combined Nasal Symptom Score: Runny Nose, Mean (Day 8): −24.97%
Percent Change from Baseline in AM and PM Combined Nasal Symptom Score: Runny Nose, Median (Day 8): −25.00%
Percent Change from Baseline in AM and PM Combined Nasal Symptom Score: Sneezing, LS Mean (Day 8): −38.54%
Percent Change from Baseline in AM and PM Combined Nasal Symptom Score: Sneezing, Mean (Day 8): −37.78%
Percent Change from Baseline in AM and PM Combined Nasal Symptom Score: Sneezing, Median (Day 8): −33.33%
